# Measured values from PMC5564600 (Oncotarget, 2017).
# Experiments:
# Assay in all cases: biochemical
# Assay type in all cases: binding
# panel of 442 kinases [1] = target: T1, panel of 442 kinases (Homo sapiens, UniProt O15197); settings: EPHB6; for remaining activity at 1 µM: read-out: % of control at 1 µM
# T1 construct: purchased Ambit Biosciences (scanMAXX KINOMEscan)
# T1 sequence (O15197 32-1021): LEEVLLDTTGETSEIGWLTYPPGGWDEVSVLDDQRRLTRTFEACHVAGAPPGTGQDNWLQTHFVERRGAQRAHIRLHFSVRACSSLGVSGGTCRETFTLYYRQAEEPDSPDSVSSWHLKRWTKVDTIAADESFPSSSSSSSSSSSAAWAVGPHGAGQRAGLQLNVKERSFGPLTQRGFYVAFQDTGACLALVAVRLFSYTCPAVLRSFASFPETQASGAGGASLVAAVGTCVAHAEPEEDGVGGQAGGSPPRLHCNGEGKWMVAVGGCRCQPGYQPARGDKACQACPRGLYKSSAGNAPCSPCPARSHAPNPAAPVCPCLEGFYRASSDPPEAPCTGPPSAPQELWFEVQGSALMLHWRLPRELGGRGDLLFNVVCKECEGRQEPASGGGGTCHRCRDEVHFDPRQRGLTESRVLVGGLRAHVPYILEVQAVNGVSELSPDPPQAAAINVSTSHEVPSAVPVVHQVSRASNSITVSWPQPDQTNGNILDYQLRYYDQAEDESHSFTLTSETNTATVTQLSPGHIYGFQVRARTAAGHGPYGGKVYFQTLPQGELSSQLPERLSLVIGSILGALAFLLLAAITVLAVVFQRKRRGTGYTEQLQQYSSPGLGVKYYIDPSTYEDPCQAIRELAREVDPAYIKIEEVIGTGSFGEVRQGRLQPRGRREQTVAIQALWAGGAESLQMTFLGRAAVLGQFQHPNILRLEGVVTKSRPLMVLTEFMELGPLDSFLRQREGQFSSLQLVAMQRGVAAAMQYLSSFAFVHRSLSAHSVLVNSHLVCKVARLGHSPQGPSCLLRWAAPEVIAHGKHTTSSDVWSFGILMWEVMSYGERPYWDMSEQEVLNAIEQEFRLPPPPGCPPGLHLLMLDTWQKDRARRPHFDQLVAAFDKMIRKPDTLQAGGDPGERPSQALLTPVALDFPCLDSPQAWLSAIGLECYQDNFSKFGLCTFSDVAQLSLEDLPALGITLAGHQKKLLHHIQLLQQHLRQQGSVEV
# panel of 442 kinases [2] = target: T2, panel of 442 kinases (Homo sapiens, UniProt O43283); settings: kinase LZK; for remaining activity at 1 µM: read-out: % of control at 1 µM
# T2 construct: purchased Ambit Biosciences (scanMAXX KINOMEscan)
# T2 sequence (O43283 1-966): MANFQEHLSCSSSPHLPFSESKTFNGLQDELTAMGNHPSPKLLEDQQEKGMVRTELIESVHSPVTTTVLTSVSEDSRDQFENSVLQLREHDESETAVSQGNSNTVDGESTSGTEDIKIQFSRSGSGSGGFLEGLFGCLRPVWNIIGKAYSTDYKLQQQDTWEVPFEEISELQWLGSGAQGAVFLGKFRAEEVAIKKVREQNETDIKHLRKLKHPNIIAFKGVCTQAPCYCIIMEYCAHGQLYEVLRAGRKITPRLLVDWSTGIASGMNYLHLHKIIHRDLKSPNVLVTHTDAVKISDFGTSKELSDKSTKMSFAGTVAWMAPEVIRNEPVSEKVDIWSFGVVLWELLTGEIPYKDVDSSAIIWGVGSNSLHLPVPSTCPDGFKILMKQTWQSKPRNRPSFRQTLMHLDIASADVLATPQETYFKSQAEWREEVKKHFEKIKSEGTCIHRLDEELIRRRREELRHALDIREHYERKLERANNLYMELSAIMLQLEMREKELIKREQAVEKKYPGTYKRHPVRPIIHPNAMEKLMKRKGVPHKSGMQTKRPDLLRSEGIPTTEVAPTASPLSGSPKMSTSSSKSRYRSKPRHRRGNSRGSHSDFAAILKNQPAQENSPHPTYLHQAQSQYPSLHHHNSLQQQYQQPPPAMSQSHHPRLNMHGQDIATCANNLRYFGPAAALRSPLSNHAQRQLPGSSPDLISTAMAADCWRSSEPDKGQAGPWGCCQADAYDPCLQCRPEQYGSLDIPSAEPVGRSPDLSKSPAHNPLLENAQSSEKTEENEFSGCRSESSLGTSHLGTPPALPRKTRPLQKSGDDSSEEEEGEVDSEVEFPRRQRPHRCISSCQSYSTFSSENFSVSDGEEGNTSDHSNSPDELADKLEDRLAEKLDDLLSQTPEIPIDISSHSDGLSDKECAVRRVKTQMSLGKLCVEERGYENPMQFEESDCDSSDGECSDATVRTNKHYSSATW
# panel of 442 kinases [3] = target: T3, panel of 442 kinases (Homo sapiens, UniProt O43293); settings: DAPK3; for remaining activity at 1 µM: read-out: % of control at 1 µM
# T3 construct: purchased Ambit Biosciences (scanMAXX KINOMEscan)
# panel of 442 kinases [4] = target: T4, panel of 442 kinases (Homo sapiens, UniProt P00533, DEL752-759); settings: EGFR(S752-I759del); for remaining activity at 1 µM: read-out: % of control at 1 µM
# T4 construct: purchased Ambit Biosciences (scanMAXX KINOMEscan)
# panel of 442 kinases [5] = target: T5, panel of 442 kinases (Homo sapiens, UniProt P27448); settings: kinase MARK3; for remaining activity at 1 µM: read-out: % of control at 1 µM
# T5 construct: purchased Ambit Biosciences (scanMAXX KINOMEscan)
# [6] = 10 µM, read-out: % of control at 10 µM
# T4 sequence (P00533 with tags, fused parts or gaps DEL752-759): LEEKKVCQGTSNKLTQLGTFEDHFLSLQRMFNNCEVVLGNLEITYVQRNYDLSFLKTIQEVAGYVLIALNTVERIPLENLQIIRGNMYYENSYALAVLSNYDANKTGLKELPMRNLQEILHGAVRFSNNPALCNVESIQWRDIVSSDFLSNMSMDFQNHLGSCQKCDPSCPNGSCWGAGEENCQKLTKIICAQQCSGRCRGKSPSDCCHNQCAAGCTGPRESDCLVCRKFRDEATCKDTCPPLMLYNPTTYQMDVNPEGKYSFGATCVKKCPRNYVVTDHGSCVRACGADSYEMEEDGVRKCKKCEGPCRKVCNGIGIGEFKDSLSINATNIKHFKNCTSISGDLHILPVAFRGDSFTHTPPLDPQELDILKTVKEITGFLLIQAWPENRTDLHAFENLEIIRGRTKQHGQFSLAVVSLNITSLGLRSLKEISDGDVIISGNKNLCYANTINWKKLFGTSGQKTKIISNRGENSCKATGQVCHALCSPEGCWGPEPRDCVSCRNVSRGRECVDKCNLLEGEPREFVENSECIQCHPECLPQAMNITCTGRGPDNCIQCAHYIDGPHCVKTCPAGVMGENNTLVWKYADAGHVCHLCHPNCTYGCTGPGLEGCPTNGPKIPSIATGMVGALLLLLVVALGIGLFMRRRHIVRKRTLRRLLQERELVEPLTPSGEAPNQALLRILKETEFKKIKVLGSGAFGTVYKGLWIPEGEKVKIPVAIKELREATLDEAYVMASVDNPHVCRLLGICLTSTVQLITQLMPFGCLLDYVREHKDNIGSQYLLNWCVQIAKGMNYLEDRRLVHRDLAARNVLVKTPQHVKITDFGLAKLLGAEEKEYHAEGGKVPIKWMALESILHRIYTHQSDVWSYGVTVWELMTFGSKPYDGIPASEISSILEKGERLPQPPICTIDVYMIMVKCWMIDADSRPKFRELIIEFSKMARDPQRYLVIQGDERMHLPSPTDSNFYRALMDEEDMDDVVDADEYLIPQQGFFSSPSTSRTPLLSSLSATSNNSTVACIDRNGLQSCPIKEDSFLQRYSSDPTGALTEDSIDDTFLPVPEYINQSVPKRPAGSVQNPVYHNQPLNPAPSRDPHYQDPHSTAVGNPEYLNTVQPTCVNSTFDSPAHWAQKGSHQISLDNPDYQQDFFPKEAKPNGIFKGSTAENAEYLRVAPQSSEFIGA
# T5 sequence (P27448 whole entry): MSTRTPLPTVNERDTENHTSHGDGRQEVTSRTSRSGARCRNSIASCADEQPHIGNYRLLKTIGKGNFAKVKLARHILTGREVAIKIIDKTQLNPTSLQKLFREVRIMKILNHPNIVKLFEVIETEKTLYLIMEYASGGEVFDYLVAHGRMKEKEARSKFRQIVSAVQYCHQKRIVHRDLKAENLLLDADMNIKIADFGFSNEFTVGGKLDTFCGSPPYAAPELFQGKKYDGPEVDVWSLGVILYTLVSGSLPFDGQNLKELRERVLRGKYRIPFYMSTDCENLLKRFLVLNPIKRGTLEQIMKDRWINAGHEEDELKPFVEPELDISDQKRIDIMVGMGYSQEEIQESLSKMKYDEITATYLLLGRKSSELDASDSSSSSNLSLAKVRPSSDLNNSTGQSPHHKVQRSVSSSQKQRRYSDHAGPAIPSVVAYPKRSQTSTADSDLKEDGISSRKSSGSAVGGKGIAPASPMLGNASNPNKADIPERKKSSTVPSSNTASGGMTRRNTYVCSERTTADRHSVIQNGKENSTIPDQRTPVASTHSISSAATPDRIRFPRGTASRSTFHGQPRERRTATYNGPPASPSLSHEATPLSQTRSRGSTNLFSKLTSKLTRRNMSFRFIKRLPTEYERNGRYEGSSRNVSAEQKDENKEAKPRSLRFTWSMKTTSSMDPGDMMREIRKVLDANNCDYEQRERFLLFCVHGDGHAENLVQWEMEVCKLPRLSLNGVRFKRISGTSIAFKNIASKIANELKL
# T3 sequence (O43293 whole entry): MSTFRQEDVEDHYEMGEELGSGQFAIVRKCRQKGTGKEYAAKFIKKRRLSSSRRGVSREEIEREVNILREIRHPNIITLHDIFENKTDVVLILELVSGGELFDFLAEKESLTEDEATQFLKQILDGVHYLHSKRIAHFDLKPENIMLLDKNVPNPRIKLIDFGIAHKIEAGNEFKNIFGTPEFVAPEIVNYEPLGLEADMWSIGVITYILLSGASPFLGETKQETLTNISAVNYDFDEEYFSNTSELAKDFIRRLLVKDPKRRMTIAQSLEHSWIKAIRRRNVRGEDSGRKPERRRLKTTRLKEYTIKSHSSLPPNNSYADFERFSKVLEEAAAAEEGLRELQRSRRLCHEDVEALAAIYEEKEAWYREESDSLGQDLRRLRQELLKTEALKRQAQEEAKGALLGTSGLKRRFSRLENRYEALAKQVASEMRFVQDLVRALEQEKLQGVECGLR
Structure (SMILES),remaining activity at 1 µM (panel of 442 kinases [1]) [%],remaining activity at 10 µM (panel of 442 kinases [1]; [6]) [%],remaining activity at 1 µM (panel of 442 kinases [2]) [%],remaining activity at 10 µM (panel of 442 kinases [2]; [6]) [%],remaining activity at 1 µM (panel of 442 kinases [3]) [%],remaining activity at 10 µM (panel of 442 kinases [3]; [6]) [%],remaining activity at 1 µM (panel of 442 kinases [4]) [%],remaining activity at 10 µM (panel of 442 kinases [4]; [6]) [%],remaining activity at 1 µM (panel of 442 kinases [5]) [%],remaining activity at 10 µM (panel of 442 kinases [5]; [6]) [%]
Nc1cc(C(F)(F)F)c(-c2cc(N3CCOCC3)nc(N3CCOCC3)n2)cn1 [Buparlisib],76,89,81,98,100,100,83,87,97,100
"Cn1c(=O)n(-c2ccc(C(C)(C)C#N)cc2)c2c3cc(-c4cnc5ccccc5c4)ccc3ncc21 [Dactolisib, 2-methyl-2-[4-(3-methyl-2-oxo-8-quinolin-3-yl-2,3-dihydroimidazo[4,5-c]quinolin-1-yl)-phenyl] propionitrile]",100,,100,,100,,100,,100,
COc1ncc(-c2ccc3nccc(-c4ccnnc4)c3c2)cc1NS(=O)(=O)c1ccc(F)cc1F [Omipalisib],57,,100,,100,,100,,100,
"FC(F)c1nc2ccccc2n1-c1nc(N2CCOCC2)nc(N2CCOCC2)n1 [ZSTK474, 2-(difluoromethyl)-1-[4,6-di(4-morpholinyl)-1,3,5-triazin-2-yl]-1H-benzimidazole]",100,,100,,100,,100,,100,
